Patent US20240246942A1, “KINASE INHIBITORS FOR THE TREATMENT OF NEURODEGENERATIVE DISEASES” (priority 2020, published 2024)

Columns and labels:
Assay in all cases: biochemical
[1] = molecular target: T1, panel of 374 wild-type kinases (Homo sapiens, UniProt Q13233); settings: read-out: % Enzyme Activity (relative to DMSO controls), MEKK1
T1 construct: purchased Reaction Biology Corporation

[2] = molecular target: T2, panel of 374 wild-type kinases (Homo sapiens, UniProt P52333); settings: read-out: % Enzyme Activity (relative to DMSO controls), JAK3
T2 construct: purchased Reaction Biology Corporation
T2 sequence (P52333 1-1124): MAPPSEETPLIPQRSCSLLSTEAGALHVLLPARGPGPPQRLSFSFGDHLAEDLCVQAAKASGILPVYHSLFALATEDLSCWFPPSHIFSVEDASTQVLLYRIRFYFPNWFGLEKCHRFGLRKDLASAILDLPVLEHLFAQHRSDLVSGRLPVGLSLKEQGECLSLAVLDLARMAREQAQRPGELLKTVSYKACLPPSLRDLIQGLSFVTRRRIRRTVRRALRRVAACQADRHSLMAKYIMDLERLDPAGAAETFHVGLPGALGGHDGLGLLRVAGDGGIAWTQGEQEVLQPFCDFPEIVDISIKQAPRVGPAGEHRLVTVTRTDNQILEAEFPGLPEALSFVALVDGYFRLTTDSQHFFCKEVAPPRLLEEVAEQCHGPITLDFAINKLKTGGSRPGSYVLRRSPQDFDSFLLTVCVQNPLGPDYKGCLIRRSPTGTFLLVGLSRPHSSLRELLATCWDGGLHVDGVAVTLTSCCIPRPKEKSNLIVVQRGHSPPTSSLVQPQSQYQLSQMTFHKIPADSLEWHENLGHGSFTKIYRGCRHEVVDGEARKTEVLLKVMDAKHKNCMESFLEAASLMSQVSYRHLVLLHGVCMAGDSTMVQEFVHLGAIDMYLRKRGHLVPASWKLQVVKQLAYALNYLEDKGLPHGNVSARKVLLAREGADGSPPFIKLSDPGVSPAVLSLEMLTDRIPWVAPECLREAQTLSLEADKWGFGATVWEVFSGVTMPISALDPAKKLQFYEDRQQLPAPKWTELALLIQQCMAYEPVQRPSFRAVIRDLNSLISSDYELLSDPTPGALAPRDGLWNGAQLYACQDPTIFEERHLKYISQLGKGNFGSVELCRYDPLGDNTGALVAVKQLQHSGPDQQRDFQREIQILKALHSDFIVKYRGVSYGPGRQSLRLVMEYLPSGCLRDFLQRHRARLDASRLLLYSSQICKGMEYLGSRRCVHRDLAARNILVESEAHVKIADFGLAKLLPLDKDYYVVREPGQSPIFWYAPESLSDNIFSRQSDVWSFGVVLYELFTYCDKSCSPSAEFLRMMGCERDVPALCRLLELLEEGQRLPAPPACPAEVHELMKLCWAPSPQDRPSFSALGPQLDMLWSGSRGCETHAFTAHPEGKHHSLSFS

[3] = molecular target: T3, panel of 374 wild-type kinases (Homo sapiens, UniProt Q86Y07); settings: read-out: % Enzyme Activity (relative to DMSO controls), kinase VRK2
T3 construct: purchased Reaction Biology Corporation
T3 sequence (Q86Y07 whole entry): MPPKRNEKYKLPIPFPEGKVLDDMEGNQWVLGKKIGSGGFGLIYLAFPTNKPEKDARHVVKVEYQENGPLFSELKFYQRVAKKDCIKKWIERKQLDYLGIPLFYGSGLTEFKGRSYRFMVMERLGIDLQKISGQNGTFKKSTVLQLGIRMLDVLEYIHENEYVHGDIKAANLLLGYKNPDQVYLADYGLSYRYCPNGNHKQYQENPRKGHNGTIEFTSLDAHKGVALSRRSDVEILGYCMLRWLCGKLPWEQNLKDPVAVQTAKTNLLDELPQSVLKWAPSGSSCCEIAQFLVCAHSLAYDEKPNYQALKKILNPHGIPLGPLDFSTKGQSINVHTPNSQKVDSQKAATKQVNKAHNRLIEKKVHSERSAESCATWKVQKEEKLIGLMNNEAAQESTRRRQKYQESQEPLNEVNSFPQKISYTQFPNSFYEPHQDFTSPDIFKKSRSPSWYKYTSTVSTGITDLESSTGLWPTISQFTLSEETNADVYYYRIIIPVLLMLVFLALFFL

[4] = molecular target: T4, panel of 374 wild-type kinases (Homo sapiens, UniProt O75716); settings: read-out: % Enzyme Activity (relative to DMSO controls), kinase STK16
T4 construct: purchased Reaction Biology Corporation
T4 sequence (O75716 whole entry): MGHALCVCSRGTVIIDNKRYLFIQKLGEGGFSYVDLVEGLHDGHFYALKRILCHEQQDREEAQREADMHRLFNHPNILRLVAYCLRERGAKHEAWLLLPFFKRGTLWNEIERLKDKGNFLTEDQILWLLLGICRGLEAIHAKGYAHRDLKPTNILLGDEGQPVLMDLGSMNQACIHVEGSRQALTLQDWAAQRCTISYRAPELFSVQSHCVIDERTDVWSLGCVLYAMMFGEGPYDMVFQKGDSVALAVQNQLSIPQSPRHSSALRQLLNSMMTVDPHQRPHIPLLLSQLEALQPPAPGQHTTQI

[5] = molecular target: T5, panel of 374 wild-type kinases (Homo sapiens, UniProt P49760); settings: read-out: % Enzyme Activity (relative to DMSO controls), CLK2
T5 construct: purchased Reaction Biology Corporation
T5 sequence (P49760 whole entry): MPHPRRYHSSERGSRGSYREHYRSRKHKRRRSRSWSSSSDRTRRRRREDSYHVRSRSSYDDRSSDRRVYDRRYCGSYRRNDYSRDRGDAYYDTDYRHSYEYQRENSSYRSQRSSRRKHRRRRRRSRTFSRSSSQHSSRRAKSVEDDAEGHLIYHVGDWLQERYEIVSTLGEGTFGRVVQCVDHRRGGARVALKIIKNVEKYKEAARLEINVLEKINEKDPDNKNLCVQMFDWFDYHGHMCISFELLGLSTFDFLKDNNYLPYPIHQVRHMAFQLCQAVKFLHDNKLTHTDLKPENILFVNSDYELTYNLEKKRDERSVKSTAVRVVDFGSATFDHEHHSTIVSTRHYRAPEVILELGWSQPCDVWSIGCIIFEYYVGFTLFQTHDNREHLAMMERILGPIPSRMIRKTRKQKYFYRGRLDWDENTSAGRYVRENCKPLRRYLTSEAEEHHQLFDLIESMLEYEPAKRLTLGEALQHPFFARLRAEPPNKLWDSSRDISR

[6] = molecular target: T6, panel of 374 wild-type kinases (Homo sapiens, UniProt P49759); settings: read-out: % Enzyme Activity (relative to DMSO controls), CLK1
T6 construct: purchased Reaction Biology Corporation
T6 sequence (P49759 whole entry): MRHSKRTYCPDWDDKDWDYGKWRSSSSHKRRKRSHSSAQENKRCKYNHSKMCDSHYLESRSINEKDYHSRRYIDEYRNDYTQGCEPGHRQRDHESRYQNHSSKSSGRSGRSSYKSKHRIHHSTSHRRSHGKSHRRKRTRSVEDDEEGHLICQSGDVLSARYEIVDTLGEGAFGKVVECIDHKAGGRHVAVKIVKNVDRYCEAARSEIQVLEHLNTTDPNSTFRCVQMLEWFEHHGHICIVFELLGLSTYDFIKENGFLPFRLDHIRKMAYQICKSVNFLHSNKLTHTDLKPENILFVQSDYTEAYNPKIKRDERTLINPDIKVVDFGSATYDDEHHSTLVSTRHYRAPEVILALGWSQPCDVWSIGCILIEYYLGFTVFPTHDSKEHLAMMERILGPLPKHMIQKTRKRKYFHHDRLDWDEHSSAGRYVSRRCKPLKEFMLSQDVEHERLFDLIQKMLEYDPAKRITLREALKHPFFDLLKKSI

[7] = molecular target: T7, panel of 374 wild-type kinases (Homo sapiens, UniProt Q15349); settings: read-out: % Enzyme Activity (relative to DMSO controls), kinase RSK3
T7 construct: purchased Reaction Biology Corporation
T7 sequence (Q15349 whole entry): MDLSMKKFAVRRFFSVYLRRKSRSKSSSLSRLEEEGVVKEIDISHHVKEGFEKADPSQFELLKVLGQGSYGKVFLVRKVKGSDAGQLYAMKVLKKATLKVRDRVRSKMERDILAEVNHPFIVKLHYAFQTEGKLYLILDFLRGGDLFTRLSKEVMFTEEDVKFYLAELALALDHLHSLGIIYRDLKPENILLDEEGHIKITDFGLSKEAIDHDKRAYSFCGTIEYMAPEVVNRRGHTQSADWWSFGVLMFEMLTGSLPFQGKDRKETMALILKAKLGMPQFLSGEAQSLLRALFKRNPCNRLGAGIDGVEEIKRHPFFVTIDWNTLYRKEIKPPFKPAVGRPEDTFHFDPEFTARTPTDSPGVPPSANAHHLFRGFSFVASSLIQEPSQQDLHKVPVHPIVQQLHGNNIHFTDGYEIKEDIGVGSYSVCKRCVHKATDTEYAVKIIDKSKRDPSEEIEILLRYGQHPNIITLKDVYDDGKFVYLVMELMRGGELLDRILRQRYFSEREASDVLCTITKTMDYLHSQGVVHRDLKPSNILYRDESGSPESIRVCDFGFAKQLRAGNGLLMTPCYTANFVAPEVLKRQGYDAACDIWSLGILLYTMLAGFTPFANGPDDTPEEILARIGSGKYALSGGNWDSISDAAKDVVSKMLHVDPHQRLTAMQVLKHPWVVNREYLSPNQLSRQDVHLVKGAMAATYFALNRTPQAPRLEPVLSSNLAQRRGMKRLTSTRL

[8] = molecular target: T8, panel of 374 wild-type kinases (Homo sapiens, UniProt Q9NRM7); settings: read-out: % Enzyme Activity (relative to DMSO controls), LATS2
T8 construct: purchased Reaction Biology Corporation
T8 sequence (Q9NRM7 1-1088): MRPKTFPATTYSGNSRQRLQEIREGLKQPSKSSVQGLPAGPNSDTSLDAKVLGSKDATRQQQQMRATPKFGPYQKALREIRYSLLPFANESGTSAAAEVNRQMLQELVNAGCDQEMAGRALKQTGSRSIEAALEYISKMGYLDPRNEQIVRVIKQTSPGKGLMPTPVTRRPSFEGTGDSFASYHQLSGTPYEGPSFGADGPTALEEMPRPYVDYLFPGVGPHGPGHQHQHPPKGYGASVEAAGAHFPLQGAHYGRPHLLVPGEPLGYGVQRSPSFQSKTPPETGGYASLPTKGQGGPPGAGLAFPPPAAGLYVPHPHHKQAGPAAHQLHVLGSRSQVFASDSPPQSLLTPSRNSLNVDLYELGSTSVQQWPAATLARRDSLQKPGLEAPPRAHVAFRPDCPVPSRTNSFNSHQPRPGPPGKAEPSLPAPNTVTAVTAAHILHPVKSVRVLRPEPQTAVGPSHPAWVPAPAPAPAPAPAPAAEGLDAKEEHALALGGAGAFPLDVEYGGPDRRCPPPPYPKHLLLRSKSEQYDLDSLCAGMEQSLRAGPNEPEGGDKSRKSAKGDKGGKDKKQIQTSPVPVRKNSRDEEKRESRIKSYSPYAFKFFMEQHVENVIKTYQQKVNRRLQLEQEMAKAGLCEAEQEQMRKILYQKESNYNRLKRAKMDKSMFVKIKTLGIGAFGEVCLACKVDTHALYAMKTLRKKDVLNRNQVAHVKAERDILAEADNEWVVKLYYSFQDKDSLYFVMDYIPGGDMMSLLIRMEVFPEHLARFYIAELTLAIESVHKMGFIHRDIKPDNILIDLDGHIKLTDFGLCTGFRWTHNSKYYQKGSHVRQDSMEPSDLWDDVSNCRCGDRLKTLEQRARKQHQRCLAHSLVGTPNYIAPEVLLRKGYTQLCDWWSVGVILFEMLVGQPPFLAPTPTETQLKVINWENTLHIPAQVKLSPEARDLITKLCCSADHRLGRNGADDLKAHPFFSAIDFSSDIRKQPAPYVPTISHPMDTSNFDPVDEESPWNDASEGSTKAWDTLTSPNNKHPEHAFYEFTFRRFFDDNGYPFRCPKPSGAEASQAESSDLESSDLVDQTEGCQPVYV

[9] = molecular target: T9, panel of 374 wild-type kinases (Homo sapiens, UniProt P09769); settings: read-out: % Enzyme Activity (relative to DMSO controls), FGR
T9 construct: purchased Reaction Biology Corporation
T9 sequence (P09769 whole entry): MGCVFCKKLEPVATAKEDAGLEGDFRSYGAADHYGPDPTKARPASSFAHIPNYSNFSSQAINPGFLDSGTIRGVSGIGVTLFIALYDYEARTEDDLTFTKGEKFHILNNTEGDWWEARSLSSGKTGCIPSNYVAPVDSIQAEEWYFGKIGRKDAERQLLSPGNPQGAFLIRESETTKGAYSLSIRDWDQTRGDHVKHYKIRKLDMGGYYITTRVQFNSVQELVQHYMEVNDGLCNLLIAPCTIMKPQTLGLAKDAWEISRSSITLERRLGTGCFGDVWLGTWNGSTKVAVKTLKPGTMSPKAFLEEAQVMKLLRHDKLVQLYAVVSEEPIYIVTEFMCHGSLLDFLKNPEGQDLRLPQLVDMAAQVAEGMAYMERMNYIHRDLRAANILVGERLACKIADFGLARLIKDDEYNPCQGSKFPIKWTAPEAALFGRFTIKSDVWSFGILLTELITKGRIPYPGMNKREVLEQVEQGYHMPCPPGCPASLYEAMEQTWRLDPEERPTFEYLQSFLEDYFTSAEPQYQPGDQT

T1 sequence (Q13233 whole entry): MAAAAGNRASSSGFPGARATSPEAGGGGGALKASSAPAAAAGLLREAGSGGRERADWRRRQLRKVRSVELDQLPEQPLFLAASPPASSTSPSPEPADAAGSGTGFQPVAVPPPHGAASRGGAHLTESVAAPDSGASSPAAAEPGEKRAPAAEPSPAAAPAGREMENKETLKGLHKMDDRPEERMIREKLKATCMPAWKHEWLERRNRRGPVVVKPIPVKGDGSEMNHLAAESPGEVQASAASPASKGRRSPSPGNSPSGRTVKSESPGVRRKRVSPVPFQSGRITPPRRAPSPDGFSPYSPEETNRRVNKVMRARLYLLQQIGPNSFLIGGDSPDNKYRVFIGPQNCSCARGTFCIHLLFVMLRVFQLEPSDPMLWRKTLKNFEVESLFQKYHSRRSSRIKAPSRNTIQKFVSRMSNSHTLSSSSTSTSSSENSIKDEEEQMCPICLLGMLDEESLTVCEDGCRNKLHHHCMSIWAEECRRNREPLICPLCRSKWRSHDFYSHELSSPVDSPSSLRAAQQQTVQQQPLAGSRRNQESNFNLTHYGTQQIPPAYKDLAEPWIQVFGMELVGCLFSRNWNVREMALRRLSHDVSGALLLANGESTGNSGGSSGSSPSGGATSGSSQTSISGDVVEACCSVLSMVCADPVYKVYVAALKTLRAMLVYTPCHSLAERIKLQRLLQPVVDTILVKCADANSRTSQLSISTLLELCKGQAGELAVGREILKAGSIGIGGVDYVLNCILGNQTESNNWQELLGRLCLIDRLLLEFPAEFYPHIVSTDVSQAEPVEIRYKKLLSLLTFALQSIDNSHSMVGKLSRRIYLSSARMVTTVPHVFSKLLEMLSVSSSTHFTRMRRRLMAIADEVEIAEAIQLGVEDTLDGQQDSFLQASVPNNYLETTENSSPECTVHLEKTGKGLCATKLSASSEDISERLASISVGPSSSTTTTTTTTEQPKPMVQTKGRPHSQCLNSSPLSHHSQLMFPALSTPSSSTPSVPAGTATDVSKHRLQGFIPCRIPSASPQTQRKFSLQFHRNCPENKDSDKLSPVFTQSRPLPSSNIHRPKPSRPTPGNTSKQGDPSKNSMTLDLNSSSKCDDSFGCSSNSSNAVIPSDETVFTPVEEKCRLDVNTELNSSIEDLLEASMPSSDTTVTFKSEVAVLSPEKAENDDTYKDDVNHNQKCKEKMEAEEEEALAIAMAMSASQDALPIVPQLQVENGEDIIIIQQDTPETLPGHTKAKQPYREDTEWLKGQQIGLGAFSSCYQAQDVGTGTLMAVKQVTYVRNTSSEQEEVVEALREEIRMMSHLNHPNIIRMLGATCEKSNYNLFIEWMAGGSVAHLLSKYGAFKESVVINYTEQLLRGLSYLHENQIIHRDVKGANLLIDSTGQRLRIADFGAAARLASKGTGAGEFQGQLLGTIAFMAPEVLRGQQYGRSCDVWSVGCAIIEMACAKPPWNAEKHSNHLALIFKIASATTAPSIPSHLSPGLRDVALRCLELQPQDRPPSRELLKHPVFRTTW

| SMILES | remaining activity at 5 µM [1] [%] | remaining activity at 5 µM [2] [%] | remaining activity at 5 µM [3] [%] | remaining activity at 5 µM [4] [%] | remaining activity at 5 µM [5] [%] | remaining activity at 5 µM [6] [%] | remaining activity at 5 µM [7] [%] | remaining activity at 5 µM [8] [%] | remaining activity at 5 µM [9] [%] | remaining activity at 10 µM ([1]; 10 uM) [%] | remaining activity at 10 µM ([2]; 10 uM) [%] | remaining activity at 10 µM ([3]; 10 uM) [%] | remaining activity at 10 µM ([4]; 10 uM) [%] | remaining activity at 10 µM ([5]; 10 uM) [%] | remaining activity at 10 µM ([6]; 10 uM) [%] | remaining activity at 10 µM ([7]; 10 uM) [%] | remaining activity at 10 µM ([8]; 10 uM) [%] | remaining activity at 10 µM ([9]; 10 uM) [%] |
| --- | --- | --- | --- | --- | --- | --- | --- | --- | --- | --- | --- | --- | --- | --- | --- | --- | --- | --- |
| O=C(Nc1cnn(-c2csc(C(=O)NC3COC3)c2)c1)Nc1ccccc1Cl [Compound 17, 4-(4-(3-(2-chlorophenyl)ureido)-1H-pyrazol-1-yl)-N-(oxetan-3-yl)thiophene-2-carboxamide] | 103 | 102 | 103 | 98.6 | 103 | 81 | 103 | 96 | 90 |  |  |  |  |  |  |  |  |  |
| Cc1sc(C(=O)NC2COC2)cc1-n1cc(NC(=O)Nc2c(F)cccc2Cl)cn1 [Compound 27, 4-(4-(3-(2-chloro-6-fluorophenyl)ureido)-1H-pyrazol-1-yl)-5-methyl-N-(oxetan-3-yl)thiophene-2-carboxamide] |  |  |  |  |  |  |  |  |  | 94.5 | 96.7 | 102 | 94.4 | 105 | 98.4 | 100 | 94.7 | 80.2 |
| O=C(Nc1cnn(-c2csc(C(=O)NC3COC3)c2)c1)Nc1c(F)cccc1Cl [Compound 25, 4-(4-(3-(2-chloro-6-fluorophenyl)ureido)-1H-pyrazol-1-yl)-N-(oxetan-3-yl)thiophene-2-carboxamide] | 98.7 | 98.7 | 102 | 107 | 112 | 74.9 | 90.1 | 104 | 95.5 |  |  |  |  |  |  |  |  |  |
